Common to all, as to assay: growth of human tumour cells (NCI), 48 h
The subject of assay [1] is NCI-H460.
In assay [2] the test system is PC-3.
Assay [3] relates to Hs-578T.
The test system of assay [4] is HCT-15.
Assay [5] deals with T47D.
The test system of assay [6] is SF-539.
The subject of assay [7] is CCRF-CEM.
Assay [8] relates to HL-60.
For assay [9], the system named is SK-MEL-2.
In assay [10] the test system is HCC 2998.
Assay [11] has as its system BT-549.
The test system of assay [12] is Malme-3M.
The subject of assay [13] is HT-29.
For assay [14], the system named is EKVX.
Assay [15] concerns SW-620.
Assay [16] deals with UACC-62.
In assay [17] the test system is 786-0.
Assay [18] relates to ACHN.
Assay [19] relates to KM12.
The test system of assay [20] is HOP-92.

The structures appear in SMILES notation.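 These data come from cells grown in 96-well plates and exposed to compound for 48 hours at five concentrations. GI50 = concentration required for 50% inhibition of growth.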 Activity calls are given as the source filed them. Cut-off read from the data, not from the text of the source: active = GI50 up to about 1.1 µM and inactive = higher. *1 amine or outer side, *2 acyl side, *3 side chain or, on linkers, in order; H or OH if unused. Where a SMILES comes first, the peptide text is derived from it. Bridges are numbered along the chain shown (N, C = ends). Roman numbers before positions name the chains, in order. [ ]: non-standard residue; d: D form. Actinocin(9to1) = Cc1c2oc3c(C)ccc(C(=O)[*:1])c3nc-2c(C(=O)[*:2])c(N)c1=O; NMeV = CN[CH](C(=O)O)C(C)C; Sar = CNCC(=O)O

`O=C(CCCn1ccnc1[N+](=O)[O-])NCCn1cnc([N+](=O)[O-])c1`: the GI50 was > 100 µM (inactive) in assay [1]; > 100 µM (inactive) in [2]; > 100 µM (inactive) in assay [3]; over 100 µM in [4]; > 100 µM (inactive) in assay [5]; > 100 µM (inactive) in assay [6]. Moreover, the GI50 in assay [7], in [8], in [9], in assay [10], in assay [11] and in [12] was > 100 µM (inactive) in each case. Further, the GI50 in assay [13], in assay [14], in assay [15], in [16], in assay [17] and in assay [18] was > 100 µM (inactive) in each case. For the same compound, the GI50 in [19] is > 100 µM (inactive).

`OC1CC(O)c2c(Cl)sc(Cl)c21` (stereo not drawn): the GI50 in assay [1] was 21.8 µM (inactive); in assay [3] it was 36 µM (inactive); in [4], 60.5 µM; in assay [5], 26.9 µM (inactive); in [6], > 100 µM (inactive); in [7], 46.1 µM (inactive). The GI50 in assay [8] is 30.5 µM (inactive); in assay [9], 19.5 µM (inactive); in assay [20], 23.4 µM (inactive); in assay [11], 34.6 µM (inactive); in [12] it was 36.3 µM (inactive); in assay [13], 17.5 µM (inactive). The GI50 in assay [14] is 5.21 µM (inactive); in [15], 44.2 µM (inactive); in assay [16], 42.8 µM (inactive); in [17], 34.4 µM (inactive); in assay [18], 33.2 µM (inactive); in assay [19], 27 µM (inactive).

For `O=C(O)c1ccccc1/C=C1\Cc2ccc3c(c2C1=O)CCCC3`, the GI50 in [1] was 32 µM (inactive); in [3], 34.1 µM (inactive); in assay [4] it was 37.1 µM; in [5], 19.6 µM (inactive); in [6] it was 26.4 µM (inactive); in [7] it was 30.4 µM (inactive). Further, the GI50 is 26.4 µM (inactive) in [8]; 31.3 µM (inactive) in assay [9]; 14.3 µM (inactive) in assay [20]; 31.3 µM (inactive) in assay [10]; 41 µM (inactive) in [11]; 41.8 µM (inactive) in [12]. Further, the GI50 in assay [13] was 50.6 µM (inactive); in assay [14] it was 43.3 µM (inactive); in assay [15], 30.8 µM (inactive); in assay [16] it was 21.1 µM (inactive); in assay [17], 98.9 µM (inactive); in assay [18], 36.5 µM (inactive). Also, in [19], the GI50 was 39.8 µM (inactive).

For the compound `NC(Cc1ccccc1)c1nccs1` (stereo not drawn), the GI50 was > 100 µM (inactive) in assay [2]; > 100 µM (inactive) in assay [3]; over 100 µM in assay [4]; > 100 µM (inactive) in assay [6]; > 100 µM (inactive) in assay [7]; > 100 µM (inactive) in assay [9]. In addition, the GI50 in assay [20], in assay [10], in assay [11], in assay [12], in assay [13] and in assay [14] was > 100 µM (inactive) each time. For the same compound, the GI50 in assay [15], in [16], in assay [17], in assay [18] and in assay [19] was > 100 µM (inactive) in each case.

As to `CCOC(=O)NC(OC)(C(F)(F)F)C(F)(F)F`, the GI50 is > 100 µM (inactive) in [1]; > 100 µM (inactive) in assay [2]; > 100 µM (inactive) in [3]; over 100 µM in assay [4]; > 100 µM (inactive) in assay [6]; > 100 µM (inactive) in assay [7]. The GI50 in [8], in assay [20], in [10], in assay [11], in assay [12] and in [13] was > 100 µM (inactive) each time. Further, the GI50 in assay [14], in assay [15], in [16], in [17] and in [18] was > 100 µM (inactive) in each case.

Take `C[N+](C)([O-])Cc1cc(-c2ccccc2)ccc1O`: the GI50 in [1] was 72.8 µM (inactive); in assay [2], > 100 µM (inactive); in assay [3], 79.3 µM (inactive); in assay [4], over 100 µM; in assay [5], > 100 µM (inactive); in assay [9] it was > 100 µM (inactive). Besides, the GI50 in [20], in assay [10], in [11], in assay [12], in assay [13] and in [14] was > 100 µM (inactive) throughout. The GI50 in assay [15], in assay [16], in assay [17], in [18] and in assay [19] was > 100 µM (inactive) throughout.

Regarding `CC(=O)N1N=C(c2ccc3ccccc3c2O)CC1c1ccc(Cl)cc1Cl` (stereo not drawn), the GI50 in [1] is 12.3 µM (inactive); in assay [2], 17.1 µM (inactive); in assay [3], 39.1 µM (inactive); in assay [4], 56.9 µM; in [5], 26.9 µM (inactive); in assay [6], 18.1 µM (inactive). Besides, the GI50 was 3.91 µM (inactive) in assay [7]; > 100 µM (inactive) in [9]; 54.6 µM (inactive) in assay [20]; > 100 µM (inactive) in [10]; > 100 µM (inactive) in assay [11]; > 100 µM (inactive) in assay [12]. Also, the GI50 in [13] is 28.7 µM (inactive); in assay [15], 26.9 µM (inactive); in [16] it was > 100 µM (inactive); in assay [17], 18.9 µM (inactive); in [18], 29.6 µM (inactive); in assay [19], 46.2 µM (inactive).

In the case of `Cc1c2oc3c(C)ccc(C(=O)NC4C(=O)NC(Cc5ccccc5)C(=O)N5CCCC5C(=O)N(C)CC(=O)N(C)C(C(C)C)C(=O)OC4C)c3nc-2c(C(=O)NC2C(=O)NC(Cc3ccccc3)C(=O)N3CCCC3C(=O)N(C)CC(=O)N(C)C(C(C)C)C(=O)OC2C)c(N)c1=O` (stereo not drawn) (I: TFP[Sar][NMeV] / II: TFP[Sar][NMeV]; ester I:1-I:C, II:1-II:C; linker I:N-II:N via Actinocin(9to1); configuration not given here), the GI50 in assay [1] is < 0.001 µM (active); in assay [2] it was < 0.001 µM (active); in assay [3], 0.0011 µM (active); in assay [4], 0.0296 µM; in [5] it was < 0.001 µM (active); in assay [6], 0.123 µM (active). Also, the GI50 in assay [7] was < 0.001 µM (active); in assay [8] it was < 0.001 µM (active); in [9] it was < 0.001 µM (active); in assay [10], < 0.001 µM (active); in [11], 0.01 µM (active); in [12], < 0.001 µM (active). Further, the GI50 in [13] is < 0.001 µM (active); in assay [14] it was 0.136 µM (active); in assay [15] it was < 0.001 µM (active); in assay [16] it was < 0.001 µM (active); in [17] it was < 0.001 µM (active); in assay [18], < 0.001 µM (active). Besides, the GI50 in assay [19] is < 0.001 µM (active).

Regarding `CCc1n[nH]c(=O)n1-n1c(C)ccc1C`, the GI50 was > 100 µM (inactive) in assay [1]; > 100 µM (inactive) in assay [2]; > 100 µM (inactive) in assay [3]; over 100 µM in assay [4]; > 100 µM (inactive) in assay [5]; > 100 µM (inactive) in assay [7]. Besides, the GI50 in assay [9], in [10], in assay [11], in assay [12], in assay [13] and in assay [14] was > 100 µM (inactive) throughout. Also, the GI50 in assay [15], in assay [16], in [17], in assay [18] and in [19] was > 100 µM (inactive) throughout.

Regarding `CC(C#N)N(CCc1ccccc1)C(=O)c1ccccc1` (stereo not drawn), the GI50 was > 100 µM (inactive) in assay [2]; > 100 µM (inactive) in [3]; over 100 µM in assay [4]; 39.2 µM (inactive) in assay [5]; > 100 µM (inactive) in assay [6]; > 100 µM (inactive) in assay [7]. Besides, the GI50 in [8], in assay [9], in assay [10], in [11], in assay [12] and in assay [13] was > 100 µM (inactive) in each case. The GI50 in assay [14], in assay [15], in [16], in [17], in assay [18] and in [19] was > 100 µM (inactive) throughout.

In the case of `Cc1ccc(S(=O)(=O)n2cncc2CO)cc1`, the GI50 is > 100 µM (inactive) in assay [1]; > 100 µM (inactive) in assay [2]; > 100 µM (inactive) in [3]; over 100 µM in assay [4]; > 100 µM (inactive) in assay [5]; > 100 µM (inactive) in assay [6]. The GI50 in assay [7], in [8], in assay [9], in assay [10], in assay [11] and in assay [12] was > 100 µM (inactive) throughout. Moreover, the GI50 in [13], in assay [14], in assay [15], in assay [16], in assay [17] and in assay [18] was > 100 µM (inactive) each time. For the same compound, the GI50 in assay [19] was > 100 µM (inactive).
